Source: publication PMC3811095 (Chemical science (Royal Society of Chemistry : 2010), 2011)

Columns and labels:
MT-2 human T-cells = assay: General cytotoxicity in MT-2 cells in the absence of virus
[1] = test system: wild-type IIIB strain of HIV-1 in MT-2 human T-cells; assay: Antiviral activity against HIV-1; assay type: cell-based; conditions: HIV-1 IIIB, MT-2 cells, multiplicity of infection 0.1; activity above background

Compound	general cytotoxicity (in words) (MT-2 human T-cells; same (low nanomolar) range of concentrations)	protection of cells from cell death due to viral killing [1]	IC50 (MT-2 human T-cells; read-out: IC50 (general cytotoxicity), absence of virus, concentration at which 50 % of the cells are killed)
O=C1Nc2ccc(Cl)cc2[C@@](C#CC2CC2)(C(F)(F)F)O1 [Efavirenz, reference compound]	no general cytotoxicity	–	–
C[C@H]1CCCC[C@H]2C(=O)C=C[C@H](O)[C@@H]2CC(=O)O1 [Sch-642305]	–	below 50%	750 nM
